# Experimental data reported in patent US20070249590A1, “Substituted indolo[2,3-a]pyrrolo[3,4-c]carbazole compounds useful in treating kinase disorders” (priority 2005, published 2007).
# Target: T1, JAK3 (JH1 and JH2 domain) (Homo sapiens, UniProt P52333)
# T1 sequence (P52333 521-1111 limits assumed): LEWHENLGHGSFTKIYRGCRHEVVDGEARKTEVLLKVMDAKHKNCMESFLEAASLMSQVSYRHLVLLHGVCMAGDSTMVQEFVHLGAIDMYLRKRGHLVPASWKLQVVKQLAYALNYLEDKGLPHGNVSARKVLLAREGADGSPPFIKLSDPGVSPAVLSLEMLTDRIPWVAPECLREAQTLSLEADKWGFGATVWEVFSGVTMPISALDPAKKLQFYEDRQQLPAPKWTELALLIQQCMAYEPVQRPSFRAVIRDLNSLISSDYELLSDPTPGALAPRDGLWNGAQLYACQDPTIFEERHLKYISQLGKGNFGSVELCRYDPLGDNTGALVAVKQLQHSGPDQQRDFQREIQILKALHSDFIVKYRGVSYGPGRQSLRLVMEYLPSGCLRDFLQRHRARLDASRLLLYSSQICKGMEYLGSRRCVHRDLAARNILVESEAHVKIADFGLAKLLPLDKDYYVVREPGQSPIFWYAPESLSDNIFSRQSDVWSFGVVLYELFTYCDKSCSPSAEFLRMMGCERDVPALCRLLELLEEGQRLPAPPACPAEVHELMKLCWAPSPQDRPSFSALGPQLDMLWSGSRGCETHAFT
# Assay: JAK3 Kinase Assay (ELISA of peptide substrate phosphorylation)
# Type: biochemical
# Settings: purified JAK3 enzyme, 10 μM ATP, biotinylated peptide substrate, 1 hour at room temperature
# Method: JAK3 enzyme activity was assayed relative to enzyme phosphorylation using the method described herein.
# Sf21 cells derived from the ovarian tissue of the fall armyworm Spodotera frugiperda were obtained from Pharmingen (San Diego, Calif.) and maintained at a temperature of about 26-28° C. in 1 l Bellco spinner flasks at 60-90 rpm. Cell viability was maintained at 95-100%, as determined by a tryptan blue dye exclusion test.
# Sf21 cells were infected with a baculovirus expression vector for JAK3 (JH1 and JH2 domain). After 48 hours of infection, cells were harvested and lysed in Tris-saline (pH 7.6) containing 2% NP-40 and a combination of protease inhibitors (Aprotinin, Pepstatin A, Pefabloc, E-64, Leupeptin, and Benzamidine) on ice for 45 minutes.
# The JAK3 enzyme was purified from the lysate using glutathione sepharose beads and the enzyme activity was assessed in Costar flat bottom EIA/RIA 96 well plates. The plates were coated with Neutravidin (110 μL) (Pierce Neutravidin Biotin-binding Protein 31000; 1 mg/mL 1:100) diluted in PBS for 1 hour at room temperature. The plates were washed with PBS-0.1% Tween (3 times) to remove unbound Neutravidin, then 1% BSA (150 NIL) in PBS was added to each well to block non-specific binding. The plates was incubated for 1 hour at room temperature and stored at −80° C. until use.
# JAK3 enzyme solution (48 μL) in 1.25×TK buffer (62.5 mM HEPES pH 7.5, 12.5 mM MgCl2) containing DTT (42 mM) (Sigma, St. Louis, Mo.) was added to each well of a polypropylene 96 well plate.
# A test compound (5 μL) diluted in DMSO (48 μL) and biotinylated peptide enzyme substrate (5 μg diluted in TK buffer containing 10 μM ATP) were added to each well using the double dispense feature of a multichannel electronic biohit. Control wells received DMSO vehicle (5 μL). The contents of the wells were mixed for approximately 8 seconds using a multitube vortexer and the reaction mixture was incubated for 1 hour at room temperature.
# After incubation, an aliquot of reaction mixture (90 μL) was transferred into a washed Neutravidin coated plate. The plate was incubated for 15 minutes at room temperature and washed 3 times with PBS-T. PY99 anti-phosphotyrosine antibody (100 μL/well) (Santa Cruz #sc-7020HRP diluted 1:6000 in 1× antibody buffer) was added into each well and the plate was incubated for 40 minutes at room temperature. The antibody buffer contained 10% BSA, 100 mM Tris (pH 7.5), 1M NaCl and 1% Tween 20. The plate washed 3 times with PBS-T, then TMB (100 pLXSigma, St. Louis, Mo.) was added to the each well. The plate was incubated for another 40 mins at room temperature in the dark. The reaction was stopped by the addition of 1M H2SO4 (50 μL/well) and the optical density was read at 450/650 nm.
# Test compounds were assayed in triplicate at 16 concentrations at half-log dilutions starting at 200 μM. A maximum and minimum signal for the assay was determined on each plate. The percent inhibition of a test compound was calculated according to the formula [formula]
# For a series of test concentrations, the IC50 was derived by graphing percent inhibition against the log of the concentrations tested for a given compound. For those compounds without an IC50, the percent inhibition results are shown at a test concentration of 1 μM.
row,IC50 [nM],SMILES
1,22,"O=C1NC(=O)c2c1c1c3ccccc3n3c1c1c2c2ccccc2n1C/C=C\C3 [Cpd 1, 12,13-(but-2-en-1,4-yl)-12,13-dihydro-5,7-dioxo-6H-indolo[2,3-a]pyrrolo[3,4-c]carbazole]"
2,8,"O=C1NCc2c1c1c3cc(CO)ccc3n3c1c1c2c2cc(CO)ccc2n1CC(CO)C3 (stereo not drawn) [Cpd 215, 3,9-bis-(hydroxymethyl)-12,13-(2-hydroxymethyl-propan-1,3-yl)-6,7,12,13-tetrahydro-5-oxo-5H-indolo[2,3-a]pyrrolo[3,4-c]carbazole]"
3,166,"COc1ccccc1CNC(=O)OCC1(O)Cn2c3ccccc3c3c4c(c5c6ccccc6n(c5c32)C1)C(=O)NC4 (stereo not drawn) [Cpd 174, 12,13-{2-hydroxy-2-[(2-methoxy-benzyl)carbamoyloxymethyl]-propan-1,3-yl}-6,7,12,13-tetrahydro-5-oxo-5H-indolo[2,3-a]pyrrolo[3,4-c]carbazole]"
4,159,"O=C1NC(=O)c2c1c1c3ccccc3n3c1c1c2c2ccccc2n1CC(OC(=O)N1CCN(C(=O)CN2CCCC2)CC1)C(O)C3 (stereo not drawn) [Cpd 95, 12,13-[2-({4-[(pyrrolidin-1-yl-methyl)carbonyl]piperazin-1-yl}carbonyloxy)-3-hydroxy-butan-1,4-yl]-12,13-dihydro-5,7-dioxo-6H-indolo[2,3-a]pyrrolo[3,4-c]carbazole]"
5,460,"O=C1NC(=O)c2c1c1c3ccccc3n3c1c1c2c2ccccc2n1CC(OC(=O)N1CCCNCC1)C(O)C3 (stereo not drawn) [Cpd 111, 12,13-{2-[(hexahydro-1H-1,4-diazepin-1-yl)carbonyloxy]-3-hydroxy-butan-1,4-yl}-12,13-dihydro-5,7-dioxo-6H-indolo[2,3-a]pyrrolo[3,4-c]carbazole]"
6,17,"COc1ccc(CCNC(=O)OCC2(O)Cn3c4ccccc4c4c5c(c6c7ccccc7n(c6c43)C2)C(=O)NC5)cc1OC (stereo not drawn) [Cpd 153, 12,13-(2-hydroxy-2-{[2-(3,4-dimethoxy-phenyl)ethyl]carbamoyloxymethyl}-propan-1,3-yl)-6,7,12,13-tetrahydro-5-oxo-5H-indolo[2,3-a]pyrrolo[3,4-c]carbazole]"
7,46,"CN1CCC(N(C)C(=O)OC2Cn3c4ccccc4c4c5c(c6c7ccccc7n(c6c43)CC2O)C(=O)NC5=O)C1 (stereo not drawn) [Cpd 108, 12,13-(2-{[N-methyl-N-(1-methyl-pyrrolidin-3-yl)]carbamoyloxy}-3-hydroxy-butan-1,4-yl)-12,13-dihydro-5,7-dioxo-6H-indolo[2,3-a]pyrrolo[3,4-c]carbazole]"
8,278,"O=C(NCCCN1CCOCC1)OCC1Cn2c3ccccc3c3c4c(c5c6ccccc6n(c5c32)C1)C(=O)NC4 (stereo not drawn) [Cpd 165, 12,13-{2-[(3-morpholin-4-yl-prop-1-yl)carbamoyloxymethyl]-propan-1,3-yl}-6,7,12,13-tetrahydro-5-oxo-5H-indolo[2,3-a]pyrrolo[3,4-c]carbazole]"
9,12,"O=C(NC1CCNC1)OC1CCn2c3ccccc3c3c4c(c5c6ccccc6n(c5c32)C1)C(=O)NC4=O (stereo not drawn) [Cpd 72, 12,13-[2-(pyrrolidin-3-yl-carbamoyloxy)-butan-1,4-yl]-12,13-dihydro-5,7-dioxo-6H-indolo[2,3-a]pyrrolo[3,4-c]carbazole]"
10,173,"CN(C)C1CCN(C(=O)OC2Cn3c4ccccc4c4c5c(c6c7ccccc7n(c6c43)CC2O)C(=O)NC5=O)C1 (stereo not drawn) [Cpd 100, 12,13-{2-[(3-dimethyl-pyrrolidin-1-yl)carbonyloxy]-3-hydroxy-butan-1,4-yl}-12,13-dihydro-5,7-dioxo-6H-indolo[2,3-a]pyrrolo[3,4-c]carbazole]"
11,98,"O=C1NC(=O)c2c1c1c3ccccc3n3c1c1c2c2ccccc2n1CC(OC(=O)N1CCN(c2ccc(O)cc2)CC1)CC3 (stereo not drawn) [Cpd 58, 12,13-(2-{[4-(4-hydroxy-phenyl)piperazin-1-yl]carbonyloxy}-butan-1,4-yl)-12,13-dihydro-5,7-dioxo-6H-indolo[2,3-a]pyrrolo[3,4-c]carbazole]"
12,187,"COc1ccc(CCNC(=O)OC2Cn3c4ccccc4c4c5c(c6c7ccccc7n(c6c43)CC2O)C(=O)NC5=O)cc1OC (stereo not drawn) [Cpd 84, 12,13-(2-{[2-(3,4-dimethoxy-phenyl)ethyl]carbamoyloxy}-3-hydroxy-butan-1,4-yl)-12,13-dihydro-5,7-dioxo-6H-indolo[2,3-a]pyrrolo[3,4-c]carbazole]"
13,94,"O=C1NC(=O)c2c1c1c3ccccc3n3c1c1c2c2ccccc2n1CC(O)(C(=O)NCCc1cccs1)C(O)C3 (stereo not drawn) [Cpd 128, 12,13-{2-[(2-thien-2-yl-ethyl)carbamoyl]-2,3-dihydroxy-butan-1,4-yl}-12,13-dihydro-5,7-dioxo-6H-indolo[2,3-a]pyrrolo[3,4-c]carbazole]"
14,446,"O=C1NC(=O)c2c1c1c3ccccc3n3c1c1c2c2ccccc2n1CC(OC(=O)N1CCCC1CN1CCCC1)CC3 (stereo not drawn) [Cpd 52, 12,13-(2-{[2-(pyrrolidin-1-yl-methyl)pyrrolidin-1-yl]carbonyloxy}-butan-1,4-yl)-12,13-dihydro-5,7-dioxo-6H-indolo[2,3-a]pyrrolo[3,4-c]carbazole]"
15,> 200,"CN(C)CCCN1CCN(C(=O)OC2CCCn3c4ccccc4c4c5c(c6c7ccccc7n(c6c43)C2)C(=O)NC5=O)CC1 (stereo not drawn) [Cpd 115, 12,13-(2-{[4-(3-dimethylamino-prop-1-yl)piperazin-1-y]carbonyloxy}-pentan-1,5-yl)-12,13-dihydro-5,7-dioxo-6H-indolo[2,3-a]pyrrolo[3,4-c]carbazole]"
16,160,O=C(NCCc1ccccn1)OCC1(O)Cn2c3ccccc3c3c4c(c5c6ccccc6n(c5c32)C1)C(=O)NC4 (stereo not drawn) [Cpd 139]
17,9,"O=C1NC(=O)c2c1c1c3ccccc3n3c1c1c2c2ccccc2n1CC(O)(C(=O)O)C(O)C3 (stereo not drawn) [Cpd 13, 12,13-(2-carboxy-2,3-dihydroxy-butan-1,4-yl)-12,13-dihydro-5,7-dioxo-6H-indolo[2,3-a]pyrrolo[3,4-c]carbazole]"
18,144,"CN1CCN(CCCNC(=O)OC2Cn3c4ccccc4c4c5c(c6c7ccccc7n(c6c43)CC2O)C(=O)NC5=O)CC1 (stereo not drawn) [Cpd 90, 12,13-(2-{[3-(4-methyl-piperazin-1-yl)prop-1-yl]carbamoyloxy}-3-hydroxy-butan-1,4-yl)-12,13-dihydro-5,7-dioxo-6H-indolo[2,3-a]pyrrolo[3,4-c]carbazole]"
19,69,"O=C1NCc2c1c1c3ccccc3n3c1c1c2c2ccccc2n1CCC(OC(=O)N1CCOCC1)CC3 (stereo not drawn) [Cpd 185, 12,13-[3-(morpholin-4-yl-carbonyloxy)-pentan-1,5-yl]-6,7,12,13-tetrahydro-5-oxo-5H-indolo[2,3-a]pyrrolo[3,4-c]carbazole]"
20,115,"O=C1NCc2c1c1c3cc([N+](=O)[O-])ccc3n3c1c1c2c2ccccc2n1CC(O)C(O)C3 (stereo not drawn) [Cpd 191, 3-nitro-12,13-(2,3-dihydroxy-butan-1,4-yl)-6,7,12,13-tetrahydro-5-oxo-5H-indolo[2,3-a]pyrrolo[3,4-c]carbazole]"
21,184,"O=C1NC(=O)c2c1c1c3ccccc3n3c1c1c2c2ccccc2n1CC(OC(=O)N1CCCCC1)C(O)C3 (stereo not drawn) [Cpd 99, 12,13-[2-(piperidin-1-yl-carbonyloxy)-3-hydroxy-butan-1,4-yl]-12,13-dihydro-5,7-dioxo-6H-indolo[2,3-a]pyrrolo[3,4-c]carbazole]"
